In patent publication US20260060961A1, “SUBSTITUTED HETEROCYCLES AS RAS INHIBITORS” (Jazz Pharmaceuticals Ireland Limited, priority 2022, published 2026):

target: Recombinant human KRAS protein containing the G12C amino acid substitution (Homo sapiens (Human), UniProt P01116, G12C); assay: HTRF nucleotide exchange assay, KRAS G12C; type: biochemical; conditions: 180 minute incubation with compound at room temperature; at least two independent replicates; read-out: KRAS G12C HTRF NEA IC50
Description: The capacity of compounds to bind KRAS G12C and KRAS wildtype was quantified using a HTRF nucleotide exchange assay. Recombinant human KRAS protein (5 nM; aa1-188 KRAS WT or KRAS containing the G12C amino acid substitution, an N-terminal 6×His-tag and leader sequence), and 2 nM Europium-labeled anti-6×His antibody were mixed in assay buffer (10 mM HEPES pH7.3, 75 mM NaCl, 5 mM MgCl2, 0.05% BSA, 0.0025% NP-40 and 100 mM KF) with various concentrations of compound in a 384-well plate and a volume of 5 μL. After a 180 minute incubation at room temperature, 5 μl of 200 nM EDA-GTP-DY647P1 diluted in assay buffer was added to the plate. Following 30-minute incubation at room temperature, time-resolved fluorescence was measured on a PerkinElmer Envision plate reader. DMSO (0.3%) and unlabeled GDP (1 μM) or equivalent tool compound were used to generate the Max and Min assay signals, respectively. Data was analysed using a four-parameter logistic model to calculate IC50 values, with at least two independent replicates were performed for each compound.

Chain of Recombinant human KRAS protein containing the G12C amino acid substitution (P01116 other isoform, or with tags, fused parts or gaps G12C): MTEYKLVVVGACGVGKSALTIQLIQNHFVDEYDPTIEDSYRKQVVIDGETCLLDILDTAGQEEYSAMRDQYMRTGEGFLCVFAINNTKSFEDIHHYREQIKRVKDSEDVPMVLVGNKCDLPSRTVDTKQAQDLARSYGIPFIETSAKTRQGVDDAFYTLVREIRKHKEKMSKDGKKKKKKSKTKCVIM

| SMILES | IC50 [µM] |
| --- | --- |
| C=CC(=O)N1CC2(CC(c3nc(-c4ccc5cnn(C)c5c4)c(-c4c(C)ccc5[nH]ncc45)n3C)C2)C1 [Example 7, 1-[6-[1-methyl-4-(1-methylindazol-6-yl)-5-(5-methyl-1H-indazol-4-yl)imidazol-2-yl]-2-azaspiro[3.3]heptan-2-yl]prop-2-en-1-one] | 1 to 10 |
| C=CC(=O)N1CC2(CC(c3nc(-c4ccc5c(cnn5C)c4)c(-c4cccc5sc(N)c(C#N)c45)n3C)C2)C1 [Example 36, 2-amino-4-[3-methyl-5-(1-methylindazol-5-yl)-2-(2-prop-2-enoyl-2-azaspiro[3.3]heptan-6-yl)imidazol-4-yl]benzothiophene-3-carbonitrile] | 1 to 10 |
| C=CC(=O)N1CC2(CC(c3nc(-c4ccc(OCC(=O)N5CCOCC5)cc4)c(-c4c(C)ccc5[nH]ncc45)n3C)C2)C1 [Example 20, 1-[6-[1-methyl-5-(5-methyl-1H-indazol-4-yl)-4-[4-(2-morpholino-2-oxo-ethoxy)phenyl]imidazol-2-yl]-2-azaspiro[3.3]heptan-2-yl]prop-2-en-1-one] | 1 to 10 |
| C=CC(=O)N1CC2(CC(c3nc(-c4ccc(-n5cnc(C6CC6)c5)cc4)c(-c4c(C)ccc5[nH]ncc45)n3C)C2)C1 [Example 8, 1-[6-[4-[4-(4-cyclopropylimidazol-1-yl)phenyl]-1-methyl-5-(5-methyl-1H-indazol-4-yl)imidazol-2-yl]-2-azaspiro[3.3]heptan-2-yl]prop-2-en-1-one] | 1 to 10 |
| C=CC(=O)N1CC2(CC(c3nc(-c4ccc5c(c4)nc(C)n5C)c(-c4c(C)ccc5[nH]ncc45)n3C)C2)C1 [Example 9, 1-[6-[4-(1,2-dimethylbenzimidazol-5-yl)-1-methyl-5-(5-methyl-1H-indazol-4-yl)imidazol-2-yl]-2-azaspiro[3.3]heptan-2-yl]prop-2-en-1-one] | 1 to 10 |
| C=CC(=O)N1CC2(CC(c3nc(-c4ccc5c(c4)c(C)nn5C)c(-c4c(C)ccc5[nH]ncc45)n3C)C2)C1 [Example 16, 1-[6-[4-(1,3-dimethylindazol-5-yl)-1-methyl-5-(5-methyl-1H-indazol-4-yl)imidazol-2-yl]-2-azaspiro[3.3]heptan-2-yl]prop-2-en-1-one] | 1 to 10 |
| C=CC(=O)N1CC2(CC(c3nc(-c4ccc(OC)cc4F)c(-c4c(C)ccc5[nH]ncc45)n3C)C2)C1 [Example 4, 1-[6-[4-(2-fluoro-4-methoxy-phenyl)-1-methyl-5-(5-methyl-1H-indazol-4-yl)imidazol-2-yl]-2-azaspiro[3.3]heptan-2-yl]prop-2-en-1-one] | 1 to 10 |
| C=CC(=O)N1CC2(CC(c3nc(-c4ccc(CN5CCN(C)CC5)cc4)c(-c4cc(O)cc5ccccc45)n3C)C2)C1 [Example 31, 1-[6-[5-(3-hydroxy-1-naphthyl)-1-methyl-4-[4-[(4-methylpiperazin-1-yl)methyl]phenyl]imidazol-2-yl]-2-azaspiro[3.3]heptan-2-yl]prop-2-en-1-one] | ≤ 1 |
| C=CC(=O)N1CC2(CC(c3nc(-c4ccc(OCC(=O)N(C)C)cc4)c(-c4c(C)ccc5[nH]ncc45)n3C)C2)C1 [Example 19, N,N-dimethyl-2-[4-[1-methyl-5-(5-methyl-1H-indazol-4-yl)-2-(2-prop-2-enoyl-2-azaspiro[3.3]heptan-6-yl)imidazol-4-yl]phenoxy]acetamide] | 1 to 10 |
| C=CC(=O)N1CC2(CC(c3nc(-c4cnn(CCOC)c4)c(-c4c(C)ccc5[nH]ncc45)n3C)C2)C1 [Example 15, 1-[6-[4-[1-(2-methoxyethyl)pyrazol-4-yl]-1-methyl-5-(5-methyl-1H-indazol-4-yl)imidazol-2-yl]-2-azaspiro[3.3]heptan-2-yl]prop-2-en-1-one] | ≥ 10 |
| C=CC(=O)N1CC2(CC(c3nc(-c4ccc(C(=O)NCCN5CCOCC5)cc4)c(-c4cc(O)cc5ccccc45)n3C)C2)C1 [Example 37, 4-[5-(3-hydroxy-1-naphthyl)-1-methyl-2-(2-prop-2-enoyl-2-azaspiro[3.3]heptan-6-yl)imidazol-4-yl]-N-(2-morpholinoethyl)benzamide] | ≤ 1 |

Results, then the compound that gave them:

| IC50 [µM] | SMILES |
| --- | --- |
| ≤ 1 | C=CC(=O)N1CC2(CC(c3nc(-c4ccc5c(cnn5C)c4)c(-c4cc(Cl)cc5[nH]ncc45)n3C)C2)C1 [Example 41, 1-[6-[5-(6-chloro-1H-indazol-4-yl)-1-methyl-4-(1-methylindazol-5-yl)imidazol-2-yl]-2-azaspiro[3.3]heptan-2-yl]prop-2-en-1-one] |
| ≤ 1 | C=CC(=O)N1CC2(CC(c3nc(-c4ccc5c(cnn5C)c4)c(-c4cc(O)cc5ccccc45)n3CC)C2)C1 [Example 32, 1-[6-[1-ethyl-5-(3-hydroxy-1-naphthyl)-4-(1-methylindazol-5-yl)imidazol-2-yl]-2-azaspiro[3.3]heptan-2-yl]prop-2-en-1-one] |
| ≤ 1 | C=CC(=O)N1CC2(CC(c3nc(-c4ccc5nn(C)cc5c4)c(-c4c(C)ccc5[nH]ncc45)n3C)C2)C1 [Example 14, 1-[6-[1-methyl-4-(2-methylindazol-5-yl)-5-(5-methyl-1H-indazol-4-yl)imidazol-2-yl]-2-azaspiro[3.3]heptan-2-yl]prop-2-en-1-one] |
| ≤ 1 | C=CC(=O)N1CC2(CC(c3nc(-c4ccc5c(cnn5C)c4)c(-c4c(C)ccc5[nH]ncc45)n3CC)C2)C1 [Example 24, 1-[6-[1-ethyl-4-(1-methylindazol-5-yl)-5-(5-methyl-1H-indazol-4-yl)imidazol-2-yl]-2-azaspiro[3.3]heptan-2-yl]prop-2-en-1-one] |
| ≤ 1 | C=CC(=O)N1CC2(CC(c3nc(-c4ccc5c(cnn5C)c4)c(-c4cc(O)cc5cccc(Cl)c45)n3C)C2)C1 [Example 35, 1-[6-[5-(8-chloro-3-hydroxy-1-naphthyl)-1-methyl-4-(1-methylindazol-5-yl)imidazol-2-yl]-2-azaspiro[3.3]heptan-2-yl]prop-2-en-1-one] |
| ≤ 1 | C=CC(=O)N1CC2(CC(c3nc(-c4ccc(N5CCOCC5)cc4)c(-c4cc(O)cc5ccccc45)n3CC)C2)C1 [Example 33, 1-[6-[1-ethyl-5-(3-hydroxy-1-naphthyl)-4-(4-morpholinophenyl)imidazol-2-yl]-2-azaspiro[3.3]heptan-2-yl]prop-2-en-1-one] |
| ≤ 1 | C=CC(=O)N1CC2(CC(c3nc(-c4ccc5nn(C)cc5c4)c(-c4cc(O)cc5ccccc45)n3C)C2)C1 [Example 28, 1-[6-[5-(3-hydroxy-1-naphthyl)-1-methyl-4-(2-methylindazol-5-yl)imidazol-2-yl]-2-azaspiro[3.3]heptan-2-yl]prop-2-en-1-one] |
| ≤ 1 | C=CC(=O)N1CC2(CC(c3nc(-c4ccc5c(c4)OCCN5C)c(-c4c(C)ccc5[nH]ncc45)n3C)C2)C1 [Example 18, 1-[6-[1-methyl-4-(4-methyl-2,3-dihydro-1,4-benzoxazin-7-yl)-5-(5-methyl-1H-indazol-4-yl)imidazol-2-yl]-2-azaspiro[3.3]heptan-2-yl]prop-2-en-1-one] |
| ≤ 1 | C=CC(=O)N1CC2(CC(c3nc(-c4ccc(CN5CCOCC5)cc4)c(-c4cc(O)cc5ccccc45)n3C)C2)C1 [Example 30, 1-[6-[5-(3-hydroxy-1-naphthyl)-1-methyl-4-[4-(morpholinomethyl)phenyl]imidazol-2-yl]-2-azaspiro[3.3]heptan-2-yl]prop-2-en-1-one] |
| ≤ 1 | C=CC(=O)N1CC2(CC(c3nc(-c4ccc(N5CCOCC5)cc4)c(-c4c(C)ccc5[nH]ncc45)n3C)C2)C1 [Example 5, 1-[6-[1-methyl-5-(5-methyl-1H-indazol-4-yl)-4-(4-morpholinophenyl)imidazol-2-yl]-2-azaspiro[3.3]heptan-2-yl]prop-2-en-1-one] |
